Assay results from ChEMBL document CHEMBL5143512, “Synthesis and in vitro antitrypanosomal evaluation of novel 6-heteroarylidene-substituted quinolone derivatives” (Eur J Med Chem, 2022).

Legend:
[1] = system: Trypanosoma brucei brucei; test: Antitrypanosomal activity against Trypanosoma brucei brucei 427 trypomastigotes assessed as reduction in parasite growth incubated for 48 hrs by resazurin dye based fluorescence assay; assay type: functional, organism-based; settings: Trypanosoma brucei, 427, 48 h
[2] = Cytotoxicity against African green monkey Vero cells assessed as cell viability at 1 uM incubated for 48 hrs by MTT based colorimetric assay; assay type: toxicity; settings: chlorocebus sabaeus, read-out: Activity
[3] = Cytotoxicity against human hTERT-BJ cells assessed as cell viability at 10 uM incubated for 48 hrs by MTT based colorimetric assay; assay type: toxicity; settings: read-out: Activity
[4] = Cytotoxicity against human hTERT-BJ cells assessed as cell viability at 5 uM incubated for 48 hrs by MTT based colorimetric assay; assay type: toxicity; settings: read-out: Activity
[5] = Cytotoxicity against African green monkey Vero cells assessed as cell viability at 10 uM incubated for 48 hrs by MTT based colorimetric assay; assay type: toxicity; settings: chlorocebus sabaeus, read-out: Activity
hTERT-BJ = test: Cytotoxicity against human hTERT-BJ cells assessed as reduction in cell viability at 10 uM incubated for 48 hrs by MTT based colorimetric assay; assay type: toxicity
[6] = Selectivity index, ratio of CC50 for African green monkey Vero cells to IC50 for Antitrypanosomal activity against Trypanosoma brucei brucei 427 trypomastigotes; assay type: toxicity; settings: read-out: Ratio CC50/IC50
[7] = Cytotoxicity against African green monkey Vero cells assessed as reduction in cell viability incubated for 48 hrs by MTT based colorimetric assay; assay type: toxicity; settings: chlorocebus sabaeus
[8] = Cytotoxicity against African green monkey Vero cells assessed as cell viability at 5 uM incubated for 48 hrs by MTT based colorimetric assay; assay type: toxicity; settings: chlorocebus sabaeus, read-out: Activity
[9] = Cytotoxicity against human hTERT-BJ cells assessed as cell viability at 1 uM incubated for 48 hrs by MTT based colorimetric assay; assay type: toxicity; settings: read-out: Activity

Structure (SMILES)	IC50 [1]	other results
CCOC(=O)c1cn(CC)c2ccc(C(=O)/C=C/c3ccc([N+](=O)[O-])s3)cc2c1=O	970 nM	–
COCCNC(=O)c1cn(Cc2ccccc2)c2ccc(C(=O)/C=C/c3ccc([N+](=O)[O-])o3)cc2c1=O	470 nM	–
N=C(N)c1ccc(OCCCCCOc2ccc(C(=N)N)cc2)cc1 [PENTAMIDINE]	10 nM	–
O=C(/C=C/c1ccc([N+](=O)[O-])o1)c1ccc2c(c1)c(=O)c(C(=O)NCCOCCO)cn2Cc1ccccc1	280 nM	–
CC(=O)c1ccc2c(c1)c(=O)c(C(=O)NCCOCCO)cn2Cc1ccc(Br)cc1	7140 nM	–
O=C1/C(=C/c2ccc([N+](=O)[O-])o2)CCc2ccccc21	360 nM	–
CCOC(=O)c1cn(Cc2ccccc2)c2ccc(C(=O)/C=C/c3ccc([N+](=O)[O-])o3)cc2c1=O	500 nM	–
O=C1/C(=C/c2ccc([N+](=O)[O-])o2)COc2ccccc21	510 nM	–
COCCNC(=O)c1c[nH]c2ccc(C(=O)/C=C/c3ccc([N+](=O)[O-])o3)cc2c1=O	3430 nM	–
CCOC(=O)c1cn(CCO)c2ccc(C(=O)/C=C/c3ccc([N+](=O)[O-])s3)cc2c1=O	380 nM	–
CCOC(=O)c1cn(CC(N)=O)c2ccc(C(=O)/C=C/c3ccc([N+](=O)[O-])o3)cc2c1=O	15300 nM	–
Cc1cccc(Cn2cc(C(=O)NCCN3CCNCC3)c(=O)c3cc(C(=O)/C=C/c4ccc([N+](=O)[O-])o4)ccc32)c1	2410 nM	–
Cc1ccc(Cn2cc(C(=O)NCCOCCO)c(=O)c3cc(C(=O)/C=C/c4ccc([N+](=O)[O-])o4)ccc32)cc1	80 nM	viability at 48 h, 1 µM [2]: 105%; viability at 48 h, 10 µM [3]: 66%; viability at 48 h, 5 µM [4]: 88%; viability at 48 h, 10 µM [5]: 6%; Activity (hTERT-BJ): < 25%; selectivity ratio [6]: 42.5; CC50 at 48 h [7]: 3.4 µM; viability at 48 h, 5 µM [8]: 20%; viability at 48 h, 1 µM [9]: 118%
CCOC(=O)c1cn(CC)c2ccc(C(=O)/C=C/c3ccc(Br)o3)cc2c1=O	1310 nM	–
CCOC(=O)c1cn(CC)c2ccc(C(=O)/C=C/c3ccc([N+](=O)[O-])o3)cc2c1=O	600 nM	–
COCCNC(=O)c1cn(Cc2ccc(C)cc2)c2ccc(C(=O)/C=C/c3ccc([N+](=O)[O-])o3)cc2c1=O	120 nM	–
CCOC(=O)c1cn(CCO)c2ccc(C(=O)/C=C/c3ccc([N+](=O)[O-])o3)cc2c1=O	2090 nM	–
